# Reference: ChEMBL document CHEMBL3885881, “DrugMatrix”
# Organism: Rattus norvegicus
# Assay: DrugMatrix - Regimen: Daily Repeat
# Format: toxicity, organism-based, Sprague-Dawley
# Design: regimen Daily Repeat, gender Male, age 6-8 weeks
# Conditions: in vivo, vehicle 100 % SALINE; for ABSOLUTE BASOPHIL / ABSOLUTE EOSINOPHIL / ABSOLUTE LYMPHOCYTE / ABSOLUTE MONOCYTE / BASOPHIL / EOSINOPHIL / ERYTHROCYTE COUNT / HEMATOCRIT / HEMOGLOBIN / LEUKOCYTE COUNT / LYMPHOCYTE / MEAN CORPUSCULAR HEMOGLOBIN / MEAN CORPUSCULAR HEMOGLOBIN CONCENTRATION / MEAN CORPUSCULAR VOLUME / MONOCYTE / NEUTROPHIL / NUCLEATED RED BLOOD CELLS / PLATELET COUNT: tissue Blood
# [1] = ip, 0.5 mg/kg, […], tissue Plasma, route intraperitoneal, dose level High, time 28 day
# [2] = iv, 0 mg/kg, 72 h, dose level Control, time 3 day
# [3] = iv, 0 mg/kg, 72 h, tissue Plasma, dose level Control, time 3 day
# [4] = iv, 0 mg/kg, 120 h, dose level Control, time 5 day
# [5] = iv, 0 mg/kg, 120 h, tissue Plasma, dose level Control, time 5 day
sequence,measurement,setting,value
CISPLATIN,ALKALINE PHOSPHATASE,[1],134.22 u/L
same,ASPARTATE AMINOTRANSFERASE,[1],78.67 u/L
same,BLOOD UREA NITROGEN,[1],25 mg/dL
same,CHOLESTEROL,[1],63.11 mg/dL
same,CREATININE,[1],0.82 mg/dL
same,GLUCOSE,[1],108.67 mg/dL
same,LACTATE DEHYDROGENASE,[1],80.89 u/L
same,LIPASE,[1],18.22 u/L
same,PHOSPHORUS,[1],9.11 mg/dL
same,POTASSIUM,[1],6.18 MEQ/L
same,SODIUM,[1],151.78 MEQ/L
same,TOTAL BILIRUBIN,[1],0.29 mg/dL
same,URIC ACID,[1],1.11 mg/dL
same,ABSOLUTE BASOPHIL,[2],0 CELLS/uL
same,ABSOLUTE EOSINOPHIL,[2],0 CELLS/uL
same,ABSOLUTE LYMPHOCYTE,[2],7026.17 CELLS/uL
same,ABSOLUTE MONOCYTE,[2],44.33 CELLS/uL
same,BASOPHIL,[2],0%
same,EOSINOPHIL,[2],0%
same,ERYTHROCYTE COUNT,[2],5.49 x10E6/uL
same,HEMATOCRIT,[2],33.67%
same,HEMOGLOBIN,[2],13.17 G/DL
same,LEUKOCYTE COUNT,[2],7.45 x10E3/uL
same,LYMPHOCYTE,[2],94%
same,MEAN CORPUSCULAR HEMOGLOBIN,[2],24.03 pg
same,MEAN CORPUSCULAR HEMOGLOBIN CONCENTRATION,[2],39.15 G/DL
same,MEAN CORPUSCULAR VOLUME,[2],61.4 fL
same,MONOCYTE,[2],0.67%
same,NEUTROPHIL,[2],5.33%
same,NUCLEATED RED BLOOD CELLS,[2],0.17 /100WBC
same,PLATELET COUNT,[2],1062.5 x10E3/uL
same,ALANINE AMINOTRANSFERASE,[3],53.17 u/L
same,ALKALINE PHOSPHATASE,[3],339.83 u/L
same,ASPARTATE AMINOTRANSFERASE,[3],83.33 u/L
same,BLOOD UREA NITROGEN,[3],16 mg/dL
same,CARBON DIOXIDE,[3],32.5 mmol/L
same,CHLORIDE,[3],98 MEQ/L
same,CHOLESTEROL,[3],74.67 mg/dL
same,CREATININE,[3],0.2 mg/dL
same,GLUCOSE,[3],128.67 mg/dL
same,LACTATE DEHYDROGENASE,[3],110.33 u/L
same,LIPASE,[3],9 u/L
same,PHOSPHORUS,[3],11.73 mg/dL
same,POTASSIUM,[3],6.34 MEQ/L
same,TOTAL BILIRUBIN,[3],0.18 mg/dL
same,URIC ACID,[3],1.28 mg/dL
same,ABSOLUTE BASOPHIL,[4],0 CELLS/uL
same,ABSOLUTE EOSINOPHIL,[4],26.67 CELLS/uL
same,ABSOLUTE LYMPHOCYTE,[4],8334.17 CELLS/uL
same,ABSOLUTE MONOCYTE,[4],29.5 CELLS/uL
same,BASOPHIL,[4],0%
same,EOSINOPHIL,[4],0.33%
same,ERYTHROCYTE COUNT,[4],5.44 x10E6/uL
same,HEMATOCRIT,[4],33.77%
same,HEMOGLOBIN,[4],13.05 G/DL
same,LEUKOCYTE COUNT,[4],8.98 x10E3/uL
same,LYMPHOCYTE,[4],92.33%
same,MEAN CORPUSCULAR HEMOGLOBIN,[4],24 pg
same,MEAN CORPUSCULAR HEMOGLOBIN CONCENTRATION,[4],38.67 G/DL
same,MEAN CORPUSCULAR VOLUME,[4],62.05 fL
same,MONOCYTE,[4],0.33%
same,NEUTROPHIL,[4],7%
same,NUCLEATED RED BLOOD CELLS,[4],0 /100WBC
same,PLATELET COUNT,[4],987 x10E3/uL
same,ALANINE AMINOTRANSFERASE,[5],43.5 u/L
same,ALKALINE PHOSPHATASE,[5],310.17 u/L
same,ASPARTATE AMINOTRANSFERASE,[5],76.67 u/L
same,BLOOD UREA NITROGEN,[5],17 mg/dL
